Measured values taken from patent US10604523B2, “1-aryl-4-methyl-[1,2,4]triazolo[4,3-a]quinoxaline derivatives” (Janssen Pharmaceutica NV, priority 2011, dated 2020).

Assays:
[1] = Plasma radiometabolite analysis of [18F]B-23; format: in vivo, rat; conditions: rat plasma, n=1
Experimental: The metabolic stability of the tracer was studied in normal rats by determination of the relative amounts of parent tracer and radiometabolites in plasma and brain at 2 min and 10 min p.i. of the tracer. […] (n=1), blood was collected in lithium heparin containing tubes (4.5 mL LH PST tubes; BD vacutainer, BD, Franklin Lakes, USA) and stored on ice. Brain was dissected and rinsed with saline (decapitation was preferred since it was difficult to have the rat perfused already at 2 min p.i.). For the 10 min timepoint, rats (n=1) were injected with about 37 MBq of tracer and sacrificed at 10 min p.i by administering an overdose of Nembutal (CEVA Sante Animale, 200 mg/kg intraperitoneal). The rats were perfused by injection of saline into the left ventricle until the liver turned pale. During perfusion, blood was collected and stored on ice. Brain was isolated.
For the plasma radiometabolite analysis, the blood was centrifugated for 10 min at 3000 rpm to separate the plasma. A volume of about 0.1 mL of plasma sample was isolated and spiked with about 10 μL of authentic non-radioactive reference material (1 mg/mL) for identification. The plasma was then injected onto an HPLC system consisting of a Chromolith Performance column (C18, 3 mm×100 mm, Merck) that was eluted with mixtures of 0.05 M NaOAc pH 5.5 (solvent A) and acetonitrile (solvent B). The following method was used for the analysis: isocratic elution with 100% A for 4 min at a flow rate of 0.5 mL/min, then linear gradient to 90% B by 14 min at a flow rate of 1 mL/min, and isocratic elution with a mixture of 10% A and 90% B at a flow rate of 1 mL/min until 17 min. After passing through an in-line UV detector (254 nm) and over a 3 in. NaI(Tl) scintillation detector connected to a single channel analyzer (Gabi box, Raytest, Straubenhardt Germany), the HPLC eluate was collected per minute using an automatic fraction collector. The radioactivity in all fractions was measured using an automated gamma counter. The peak corresponding to the intact tracer eluted at ˜11 min. Polar radiometabolite(s) were eluting from 1 to 3 min. Slightly more polar radiometabolites (relatively to the polarity of the intact tracer) were eluting just before the intact tracer. Faster metabolisation is observed in plasma compared to brain. At 2 min p.i., about 70% of the recovered radioactivity was present as intact tracer. Two more polar radiometabolites (M1, M3) were observed of which one (M3) was closely eluting to the intact tracer. At 10 min p.i., the presence of a large amount of a third polar metabolite (M2, also closely eluting to the parent compound) was observed which accounted for about 60% of the recovered radioactivity. At 10 min p.i., only ˜20% of the recovered radioactivity was still present as intact tracer.

[2] = Biodistribution study of [18F]B-23; conditions: normal rats, mean ± SD, n=3
Experimental: The biodistribution study was carried out in male Wistar rats (body weight 320-370 g) at 2 min, 10 min and 30 min post injection (p.i.) (n=3/time point). […] Blood and major organs were collected in tared tubes and weighed. The radioactivity in blood, organs and other body parts was measured using an automated gamma counter. The distribution of radioactivity in different parts of the body at different time points p.i. of the tracer was calculated and expressed as percentage of injected dose (% ID), and as standardized uptake values (SUV) for the selected organs. % ID is calculated as counts per minute (cpm) in organ/total cpm recovered. SUVs are calculated as (radioactivity in cpm in organ/weight of the organ in g)/(total counts recovered/body weight in g). For calculation of total radioactivity in blood, blood mass was assumed to be 7% of the body mass.

[3] = system: cAMP and cGMP levels in the rat brain (hippocampus and striatum); test: Effect of PDE-inhibitors ex-vivo studies in rat: cAMP and cGMP levels in brain; conditions: 10 mg/kg s.c., -1 h
Experimental: Upon arrival, the animals (body weight 210-240 g) were housed in groups of 5 and fed normal chow at libitum.
Compounds and/or solvent were administered either orally, subcutaneously or IV. […] After microwave, the rats were decapitated and the heads cooled immediately with ice cold physiological saline. […] 10 vol (w/v) of 0.1N HCl were added. The tissue was homogenized for 3 min at 30 Hz using a Tissuelyser from Qiagen.
The homogenate was transferred into an Eppendorf tube (1.5 ml) and after centrifugation for 15 min at 1600 g in a pre-cooled (4C) Eppendorf centrifuge, the supernatant was collected and stored at −80° C. until analysis.
The cAMP and cGMP levels were measured in the rat brain (hippocampus and striatum) to establish in vivo target engagement and central pharmacological effect of PDE2 inhibition.

[4] = target: T1, Rat recombinant PDE10A (rPDE10A2) (Rattus norvegicus, UniProt Q9QYJ6); test: In vitro assay PDE10A (SPA, 3H-cAMP); format: biochemical; conditions: -log IC50 expressed in mol/L, rPDE10A2, 60 nM cAMP
T1 construct: made in house; host or cells: Sf9 insect cells (baculovirus)
T1 sequence (Q9QYJ6 1-794): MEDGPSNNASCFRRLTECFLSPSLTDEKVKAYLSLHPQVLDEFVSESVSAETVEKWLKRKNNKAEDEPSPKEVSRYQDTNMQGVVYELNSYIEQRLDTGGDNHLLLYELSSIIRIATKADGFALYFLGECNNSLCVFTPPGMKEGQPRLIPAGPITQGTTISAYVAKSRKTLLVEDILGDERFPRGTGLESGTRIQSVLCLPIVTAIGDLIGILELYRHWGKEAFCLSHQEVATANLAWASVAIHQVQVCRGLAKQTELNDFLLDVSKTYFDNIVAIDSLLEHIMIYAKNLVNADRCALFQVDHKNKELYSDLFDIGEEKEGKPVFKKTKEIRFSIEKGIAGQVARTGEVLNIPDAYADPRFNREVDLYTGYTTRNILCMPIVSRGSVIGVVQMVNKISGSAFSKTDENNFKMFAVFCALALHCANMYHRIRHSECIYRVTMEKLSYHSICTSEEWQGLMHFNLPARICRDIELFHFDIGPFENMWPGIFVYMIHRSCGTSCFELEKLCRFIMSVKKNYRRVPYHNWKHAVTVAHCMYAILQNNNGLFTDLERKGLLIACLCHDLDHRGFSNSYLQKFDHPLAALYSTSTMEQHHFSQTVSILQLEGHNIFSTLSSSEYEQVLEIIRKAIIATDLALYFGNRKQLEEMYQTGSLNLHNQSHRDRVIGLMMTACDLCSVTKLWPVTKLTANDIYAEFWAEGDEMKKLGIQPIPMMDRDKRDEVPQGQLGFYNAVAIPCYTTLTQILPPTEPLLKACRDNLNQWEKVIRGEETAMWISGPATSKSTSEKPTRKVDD

Cc1nc2ccc(CN3CCOCC3)cc2n2c(-c3c([18F])cccc3Cl)nnc12 [[18F]B-23, 1-[2-Chloro-6-(^18F)fluorophenyl]-4-methyl-8-(morpholin-4-ylmethyl)[1,2,4]triazolo[4,3-a]quinoxaline]
% in plasma Intact tracer ([1]; 2 min p.i.): 70%
% in plasma Polar metabolite M1 ([1]; 2 min p.i.): 16%
% in plasma Polar metabolite M3 ([1]; 2 min p.i.): 14%
% in plasma Intact tracer ([1]; 10 min p.i.): 18%
% in plasma Polar metabolite M1 ([1]; 10 min p.i.): 10%
% in plasma Polar metabolite M2 ([1]; 10 min p.i.): 61%
% in plasma Polar metabolite M3 ([1]; 10 min p.i.): 12%
% ID Blood ([2]; 2 min p.i.): 6.69 ± 0.4 % ID
% ID Carcass ([2]; 2 min p.i.): 42.54 ± 4.8 % ID
% ID Cerebellum ([2]; 2 min p.i.): 0.096 ± 0.022 % ID
% ID Cerebrum total ([2]; 2 min p.i.): 1.030 ± 0.130 % ID
% ID Cortex ([2]; 2 min p.i.): 0.086 ± 0.017 % ID
% ID Heart ([2]; 2 min p.i.): 0.81 ± 0.0 % ID
% ID Hippocampus ([2]; 2 min p.i.): 0.036 ± 0.002 % ID
% ID Intestines ([2]; 2 min p.i.): 9.51 ± 1.1 % ID
% ID Kidneys ([2]; 2 min p.i.): 4.68 ± 0.7 % ID
% ID Liver ([2]; 2 min p.i.): 30.79 ± 4.6 % ID
% ID Lungs ([2]; 2 min p.i.): 2.27 ± 1.2 % ID
% ID Rest of cerebrum ([2]; 2 min p.i.): 0.809 ± 0.130 % ID
% ID Spleen + Pancreas ([2]; 2 min p.i.): 1.57 ± 0.1 % ID
% ID Stomach ([2]; 2 min p.i.): 2.44 ± 0.3 % ID
% ID Striatum ([2]; 2 min p.i.): 0.098 ± 0.010 % ID
% ID Urine ([2]; 2 min p.i.): 0.25 ± 0.1 % ID
% ID Blood ([2]; 10 min p.i.): 6.27 ± 0.5 % ID
% ID Carcass ([2]; 10 min p.i.): 37.39 ± 4.9 % ID
% ID Cerebellum ([2]; 10 min p.i.): 0.020 ± 0.002 % ID
% ID Cerebrum total ([2]; 10 min p.i.): 0.212 ± 0.006 % ID
% ID Cortex ([2]; 10 min p.i.): 0.016 ± 0.004 % ID
% ID Heart ([2]; 10 min p.i.): 0.23 ± 0.0 % ID
% ID Hippocampus ([2]; 10 min p.i.): 0.006 ± 0.001 % ID
% ID Intestines ([2]; 10 min p.i.): 10.97 ± 1.5 % ID
% ID Kidneys ([2]; 10 min p.i.): 6.02 ± 1.2 % ID
% ID Liver ([2]; 10 min p.i.): 37.83 ± 3.3 % ID
% ID Lungs ([2]; 10 min p.i.): 0.68 ± 0.1 % ID
% ID Rest of cerebrum ([2]; 10 min p.i.): 0.159 ± 0.006 % ID
% ID Spleen + Pancreas ([2]; 10 min p.i.): 0.42 ± 0.0 % ID
% ID Stomach ([2]; 10 min p.i.): 2.77 ± 0.8 % ID
% ID Striatum ([2]; 10 min p.i.): 0.031 ± 0.005 % ID
% ID Urine ([2]; 10 min p.i.): 0.61 ± 0.5 % ID
% ID Blood ([2]; 30 min p.i.): 4.10 ± 0.6 % ID
% ID Carcass ([2]; 30 min p.i.): 23.75 ± 1.9 % ID
% ID Cerebellum ([2]; 30 min p.i.): 0.011 ± 0.005 % ID
% ID Cerebrum total ([2]; 30 min p.i.): 0.084 ± 0.026 % ID
% ID Cortex ([2]; 30 min p.i.): 0.006 ± 0.003 % ID
% ID Heart ([2]; 30 min p.i.): 0.12 ± 0.0 % ID
% ID Hippocampus ([2]; 30 min p.i.): 0.003 ± 0.001 % ID
% ID Intestines ([2]; 30 min p.i.): 19.75 ± 5.6 % ID
% ID Kidneys ([2]; 30 min p.i.): 8.24 ± 0.3 % ID
% ID Liver ([2]; 30 min p.i.): 29.30 ± 4.8 % ID
% ID Lungs ([2]; 30 min p.i.): 0.46 ± 0.0 % ID
% ID Rest of cerebrum ([2]; 30 min p.i.): 0.064 ± 0.024 % ID
% ID Spleen + Pancreas ([2]; 30 min p.i.): 0.32 ± 0.1 % ID
% ID Stomach ([2]; 30 min p.i.): 4.81 ± 0.3 % ID
% ID Striatum ([2]; 30 min p.i.): 0.012 ± 0.001 % ID
% ID Urine ([2]; 30 min p.i.): 10.80 ± 1.2 % ID

CCCCOc1ccc(Cl)c(-c2nnc3c(C)nc4ccc(CN(C)C)cc4n23)c1 [Compound B-88]
Hippocampus cAMP (% of Control) [3]: 117 ± 20 % of Control
Hippocampus cGMP (% of Control) [3]: 150 ± 42 % of Control
Striatum cAMP (% of Control) [3]: 88 ± 12 % of Control
Striatum cGMP (% of Control) [3]: 121 ± 20 % of Control
IC50 ([4]; read-out: PIC50 PDE10 (converted)): 2140 nM

CCCCOc1cncc(-c2nnc3c(C)nc4ccc(CN(C)C)cc4n23)c1 [Compound B-197]
Hippocampus cAMP (% of Control) [3]: 122 ± 10 % of Control
Hippocampus cGMP (% of Control) [3]: 104 ± 32 % of Control
Striatum cAMP (% of Control) [3]: 89 ± 6 % of Control
Striatum cGMP (% of Control) [3]: 128 ± 26 % of Control
PIC50 PDE10 [4]: 5.03
